Laboratory results reported in patent US20260092062A1, “PYRIDINE CARBOXAMIDE COMPOUNDS AND THEIR USE IN TREATING MEDICAL CONDITIONS” (Rectify Pharmaceuticals, Inc., priority 2022, published 2026).

Molecular target: T1, E297G variant of human ABCB11 (Homo sapiens, UniProt O95342, E297G)
T1 construct: expressed in transfected cells
Experiment: ABCB11 E297G expression assay (HiBit lytic luminescence) in HEK-293/E297G cells
Format: cell-based
Conditions: increase in expression of ABCB11 E297G, 24 hours treatment, top concentration 25 μM, class also includes Emax criterion, read-out: BSEP EC50
Description: To assess activity against ABCB11 E297G, the compounds were screened in an assay measuring protein expression, using cells transfected with cDNA encoding HiBit-tagged ABCB11 E297G.
Here we describe an assay for measuring the expression of the E297G variant of human ABCB11 (henceforth referred to as ABCB11 E297G) and the use of this assay to measure the efficacy of compounds to increase the expression of ABCB11 E297G. The assay was designed to characterize the efficacy and potency of compounds to increase the expression of ABCB11 E297G by calculating an Emax and EC50 value. HEK-293 cells stably expressing E297G (HEK-293/E297G cells) were used for this assay and were maintained at 37° C. (5% CO2, humidified) in Eagle's Minimum Essential Medium supplemented with 10% fetal bovine serum and 1% Glutamine. For the assay, the HEK-293/E297G cells were seeded in black/transparent-bottom 384-well plates at 20,000 cells/well in 22.5 μl Opti-MEM (Thermofisher, product #11058021) media supplemented with 2.7% of fetal bovine serum (Gibco, product #16000044) and allowed to settle for 4 hours at 37° C. (5% CO2, humidified). Compound serial dilutions are prepared in Opti-MEM as four times (4×) the final concentration and using a dilution factor of 2.15. After the four h incubation period, 7.5 μL of the 4× dilutions are transferred to the assay plate.
Dose response curves include eight doses with the top final concentration at 25 μM in 0.75% DMSO. Liquid handling is performed in a robotic device equipped with a 384-tip head (Analytik Jena—CyBio Vario). After addition of compound treatment, cells are incubated for 24 hours at 37° C. (5% CO2, humidified). After the 24-hour treatment, plates are allowed to equilibrate for 30 minutes at room temperature. Using the Analytik Jena—CyBio Vario instrument, the volume of each well is reduced to 15 μl and 15 μl of HiBit lytic assay reagent (Promega, product #N3040), which is prepared according to manufacturer's instructions, is added back to each well. The plates are incubated at room temperature for additional 30 minutes and luminescent signal is acquired using a Hamamatsu FDSS 7000 EX plate-reader (20 reads, exposure time 0.2 seconds, gain 200).
Results are presented below in Table 3 for ABCB11 E297G.

T1 sequence (O95342 whole entry E297G): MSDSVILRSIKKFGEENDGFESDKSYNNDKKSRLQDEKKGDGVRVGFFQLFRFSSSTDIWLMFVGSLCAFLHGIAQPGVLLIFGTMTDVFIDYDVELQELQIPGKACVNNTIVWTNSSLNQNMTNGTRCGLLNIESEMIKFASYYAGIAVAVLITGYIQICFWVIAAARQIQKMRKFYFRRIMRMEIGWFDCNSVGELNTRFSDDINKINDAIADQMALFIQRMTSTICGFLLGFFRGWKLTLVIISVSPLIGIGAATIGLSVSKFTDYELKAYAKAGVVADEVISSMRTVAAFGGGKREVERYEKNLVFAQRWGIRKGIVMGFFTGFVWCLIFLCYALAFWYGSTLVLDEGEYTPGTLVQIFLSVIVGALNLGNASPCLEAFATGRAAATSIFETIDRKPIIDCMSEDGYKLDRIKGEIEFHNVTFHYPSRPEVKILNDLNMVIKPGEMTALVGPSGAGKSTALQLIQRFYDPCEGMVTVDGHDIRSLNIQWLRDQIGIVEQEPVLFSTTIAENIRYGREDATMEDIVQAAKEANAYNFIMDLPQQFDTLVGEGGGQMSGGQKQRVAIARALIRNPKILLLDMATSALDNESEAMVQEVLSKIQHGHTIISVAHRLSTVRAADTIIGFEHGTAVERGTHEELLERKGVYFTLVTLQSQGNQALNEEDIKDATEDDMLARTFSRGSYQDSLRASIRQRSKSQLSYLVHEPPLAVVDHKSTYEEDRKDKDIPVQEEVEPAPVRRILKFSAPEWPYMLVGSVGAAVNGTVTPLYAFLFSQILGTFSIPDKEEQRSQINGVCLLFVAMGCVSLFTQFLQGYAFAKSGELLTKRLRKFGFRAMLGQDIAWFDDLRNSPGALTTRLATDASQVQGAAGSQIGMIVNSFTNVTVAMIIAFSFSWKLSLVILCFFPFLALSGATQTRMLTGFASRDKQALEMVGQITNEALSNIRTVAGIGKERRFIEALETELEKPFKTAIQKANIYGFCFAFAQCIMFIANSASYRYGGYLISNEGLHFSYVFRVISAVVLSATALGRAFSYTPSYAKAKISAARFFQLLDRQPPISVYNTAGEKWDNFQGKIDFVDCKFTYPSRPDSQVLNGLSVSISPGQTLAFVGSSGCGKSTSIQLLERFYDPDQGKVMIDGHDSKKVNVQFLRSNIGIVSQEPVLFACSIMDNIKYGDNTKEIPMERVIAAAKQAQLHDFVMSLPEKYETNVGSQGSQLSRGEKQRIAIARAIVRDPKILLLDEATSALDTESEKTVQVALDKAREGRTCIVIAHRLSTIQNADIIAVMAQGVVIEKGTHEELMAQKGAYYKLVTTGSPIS

Structure (SMILES): Cc1ccc(NC(=O)c2ccc3cnccc3c2)nc1-c1cn(C)c(=O)c2[nH]ccc12 [Compound I-26]
- EC50: 2.5 to 10 µM

Structure (SMILES): Cc1ccc(NC(=O)C2CCc3ccccc32)nc1-c1cn(C)c(=O)c2[nH]ccc12 (centres unmarked) [Compound I-177]
- EC50: 2.5 to 10 µM

Structure (SMILES): Cc1ccc(NC(=O)C2CCN(c3ccccc3)CC2)nc1-c1cn(C)c(=O)c2[nH]ccc12 [Compound I-11]
- EC50: < 2.5 µM

Structure (SMILES): Cc1ccc(NC(=O)c2cnn(C3CCOCC3)c2)nc1-c1cn(C)c(=O)c2[nH]ccc12 [Compound I-21]
- EC50: 10 to 25 µM

Structure (SMILES): Cc1ccc(NC(=O)c2ccc3c(c2)OCCN3C)nc1-c1cn(C)c(=O)c2[nH]ccc12 [Compound I-15]
- EC50: 2.5 to 10 µM

Structure (SMILES): Cc1ccc(NC(=O)c2cnn(-c3ccccc3F)c2)nc1-c1cn(C)c(=O)c2[nH]ccc12 [Compound I-3]
- EC50: > 25 µM

Structure (SMILES): Cc1ccc(NC(=O)c2cnc(-c3ccccn3)nc2)nc1-c1cn(C)c(=O)c2[nH]ccc12 [Compound I-1]
- EC50: 2.5 to 10 µM

Structure (SMILES): Cc1ccc(NC(=O)c2ccc(-n3cccn3)cc2)nc1-c1cn(C)c(=O)c2[nH]ccc12 [Compound I-23]
- EC50: > 25 µM

Structure (SMILES): Cc1ccc(NC(=O)c2cccc3c2OC(C)(C)CC3)nc1-c1cn(C)c(=O)c2[nH]ccc12 [Compound I-6]
- EC50: 2.5 to 10 µM

Structure (SMILES): Cc1cnc2ncc(C(=O)Nc3ccc(C)c(-c4cn(C)c(=O)c5[nH]ccc45)n3)n2c1 [Compound I-10]
- EC50: > 25 µM

Structure (SMILES): Cc1ccc(NC(=O)c2ccc3c(c2)n(C)c(=O)n3C)nc1-c1cn(C)c(=O)c2[nH]ccc12 [Compound I-18]
- EC50: > 25 µM

Structure (SMILES): Cc1ccc(NC(=O)C2CCN(c3ccccn3)CC2)nc1-c1cn(C)c(=O)c2[nH]ccc12 [Compound I-12]
- EC50: 2.5 to 10 µM

Structure (SMILES): Cc1ccc(NC(=O)C2CCN(S(C)(=O)=O)CC2)nc1-c1cn(C)c(=O)c2[nH]ccc12 [Compound I-13]
- EC50: 10 to 25 µM

Structure (SMILES): Cc1ccc(NC(=O)c2ccc(C(F)(F)F)nc2)nc1-c1cn(C)c(=O)c2[nH]ccc12 [Compound I-5]
- EC50: 2.5 to 10 µM

Structure (SMILES): Cc1ccc(NC(=O)[C@@H]2CCCN2C(C)C)nc1-c1cn(C)c(=O)c2[nH]ccc12 [Compound I-2]
- EC50: 2.5 to 10 µM

Structure (SMILES): Cc1ccc(NC(=O)c2cc(-c3ccccc3)no2)nc1-c1cn(C)c(=O)c2[nH]ccc12 [Compound I-19]
- EC50: > 25 µM

Structure (SMILES): Cc1ccc(NC(=O)c2cnc(C(F)(F)F)s2)nc1-c1cn(C)c(=O)c2[nH]ccc12 [Compound I-7]
- EC50: > 25 µM

Structure (SMILES): Cc1ccc(NC(=O)c2ccncn2)nc1-c1cn(C)c(=O)c2[nH]ccc12 [Compound I-24]
- EC50: 10 to 25 µM

Structure (SMILES): Cc1ccc(NC(=O)c2cc3ccc(F)cc3n2C)nc1-c1cn(C)c(=O)c2[nH]ccc12 [Compound I-14]
- EC50: > 25 µM

Structure (SMILES): Cc1ccc(NC(=O)c2nc3c(s2)CN(C)CC3)nc1-c1cn(C)c(=O)c2[nH]ccc12 [Compound I-16]
- EC50: 10 to 25 µM

Structure (SMILES): Cc1ccc(NC(=O)c2ccc3c(ccn3C)c2)nc1-c1cn(C)c(=O)c2[nH]ccc12 [Compound I-20]
- EC50: 2.5 to 10 µM

Structure (SMILES): Cc1ccc(NC(=O)c2nc(-c3ccccc3)ns2)nc1-c1cn(C)c(=O)c2[nH]ccc12 [Compound I-4]
- EC50: > 25 µM

Structure (SMILES): Cc1ccc(NC(=O)C2CCC(F)(F)C2)nc1-c1cn(C)c(=O)c2[nH]ccc12 (centres unmarked) [Compound I-17]
- EC50: < 2.5 µM

Structure (SMILES): Cc1ccc(NC(=O)c2cc3n(n2)CCCC3)nc1-c1cn(C)c(=O)c2[nH]ccc12 [Compound I-27]
- EC50: 2.5 to 10 µM

Structure (SMILES): Cc1ccc(NC(=O)c2cnn(-c3ccccc3)c2C)nc1-c1cn(C)c(=O)c2[nH]ccc12 [Compound I-9]
- EC50: > 25 µM

Structure (SMILES): Cc1ccc(NC(=O)c2cc(CC(C)C)nn2C)nc1-c1cn(C)c(=O)c2[nH]ccc12 [Compound I-8]
- EC50: < 2.5 µM

Structure (SMILES): CCOC(=O)N1CCC(C(=O)Nc2ccc(C)c(-c3cn(C)c(=O)c4[nH]ccc34)n2)CC1 [Compound I-25]
- EC50: 2.5 to 10 µM

Structure (SMILES): Cc1ccc(NC(=O)c2coc(N3CCOCC3)n2)nc1-c1cn(C)c(=O)c2[nH]ccc12 [Compound I-22]
- EC50: 2.5 to 10 µM

Structure (SMILES): Cc1ccc(NC(=O)C2CCCc3ccccc32)nc1-c1cn(C)c(=O)c2[nH]ccc12 (centres unmarked) [Compound I-176]
- EC50: < 2.5 µM
